Results from patent US11225507B2, “Conformation switchable antimicrobial peptides and methods of using the same” (priority 2017, dated 2022).
Like-named read-outs stand apart in the source and are kept apart here.

Legend:
[1] = Circular dichroism (CD) secondary structure of polypeptides at different pH; format: physicochemical
Experimental: The secondary structure of the polypeptides at different pH value was then investigated by circular dichroism (CD). […] Distortion of helical conformation was noted when the pH was adjusted back to neutral (FIG. 1C).
The MALLS detector was calibrated using pure toluene and can be used for the determination of the absolute molecular weights (MWs). The MWs of polymers were determined based on the dn/dc value of each polymer sample calculated offline by using the internal calibration system processed by the ASTRA V software (version 5.1.7.3, Wyatt Technology, Santa Barbara, Calif., USA). Circular dichroism (CD) measurements were carried out on a JASCO J-815 CD spectrometer. The polymer samples were prepared at concentrations of 4.4 μM. The solution was placed in a quartz cell with a path length of 0.10 cm. The zeta-potential of polypeptides was evaluated by Malvern Zetasizer. Infrared spectra were recorded on a Perkin Elmer 100 serial FTIR spectrophotometer calibrated with polystyrene film. Lyophilization was performed on a FreeZonelyophilizer (Labconco, Kansas City, Mo., USA). UV light was generated from an OmiCure S1000 UV lamp (EXFO, Mississauga, Canada).

E. coli DH5α = experiment: Minimal inhibition concentration (MIC), E. coli DH5α; format: cell-based, Escherichia coli; settings: pH 7.4
Experimental: Minimal inhibition concentration (MIC). Gram-negative bacteria, DH5α and MG1655 (E. coli) were grown in LB medium at 37° C. For determination of the MIC, polypeptides were dissolved in media using serial dilutions from a stock solution. Into each well of a 96-well plate was added 200 μL of each concentration and 2 μL of bacteria (1×10^8 CFU (colony forming units)) in medium. The plate was incubated at 37° C. The optical density readings of microorganism solutions were measured after 24 h incubation. The MIC was considered as the lowest concentration of peptide where no visual growth of bacteria was detected.

[2] = tested on: clinically isolated H. pylori strains, including clarithromycin-resistant J99A-7, J99A-11, J99C-8, and J99D-1; experiment: Bactericidal activity against clinically isolated H. pylori strains; format: cell-based, Helicobacter pylori; settings: pH 3.0, 1 h incubation, 4.4 μM
Experimental: FIG. 3. HCT-AMPs effectively kill clinically isolated drug resistant H. pylori. (A) The bactericidal activity of PL2 against clinically isolated H. pylori strains. PL2, dissolved in the Tris-HCl buffer (pH 3.0), were incubated with clinically isolated strains in BB medium supplied with fresh urea, FBS and vancomycin (pH 3.0) for 1 h. The final concentration of PL2 was 4.4 μM. (B) The antibacterial activity of triple therapy against J99A-11 at pH 7.4 or 3.0. Concentrations of omeprazole, amoxicillin, and clarithromycin in OAC1 are 20.0 μM, 6.8 μM, and 1.9 μM, respectively; in OAC2 are 40.0 μM, 13.6 μM, and 3.8 μM, respectively; in OAC3 are 80.0 μM, 27.2 μM, and 7.6 μM, respectively (bars, left to right). (C) The antibacterial activity of omeprazole (0) and a combination of amoxicillin and clarithromycin (AC) against J99A-11 at pH 3.0. O1, O2, O3 represents the concentration of omeprazole at 20.0 μM, 40.0 μM, and 80.0 μM, respectively. AC1, AC2, AC3 represents the concentration of amoxicillin and clarithromycin at 6.8 μM and 1.9 μM, 13.6 μM and 3.8 μM, 27.2 μM and 7.6 μM, respectively.
H. pylori killing kinetics at various pHs. The killing kinetics of polypeptides were measured against H. pylori by counting the colony forming units (CFU) of alive bacteria with agar plating. […] The plates were incubated for 72 h in the incubator and the bacteria were counted for CFU. […]

H. pylori SS1 = experiment: SEM analysis of bacterial morphology; format: cell-based, Helicobacter pylori; settings: 30 min
Experimental: SEM analysis. SS1 bacterial cells grown in BB with the supplement of 10% FBS under pH 7.4 or 4.0 with or without polypeptides (2.2 μM) treatment were performed using a similar protocol as killing kinetics measurements but with a 30 min incubation time. All the samples were collected into a microfuge tube and pelleted at 4000 rpm for 5 min, and then washed twice with phosphate-buffered saline. Subsequently, bacteria were fixed with paraformaldehyde solution (4%) for 1 h before proceeding, followed by washing with DI water. Dehydration was performed with a series of graded ethanol solution (10%, 25%, 50%, 75%, 95%, and 100%). The dehydrated samples were dried under vacuum overnight before being mounted on carbon tape and coated with gold-platinum for imaging using a Hitachi S-4700 High Solution SEM (Japan).

commensal bacteria = experiment: Killing effect against commensal bacteria in vivo (16S rRNA qPCR); settings: mice, daily gavage for 3 consecutive days
Experimental: The bacterial load was determined by quantitative real-time PCR using a protocol modified from Stefka et al., and Buffie et al. (Stefka et al. (2014) Commensal bacteria protect against food allergen sensitization. Proc Natl Acad Sci USA 111:13145-13150; Buffie et al. (2012) Profound alterations of intestinal microbiota following a single dose of clindamycin results in sustained susceptibility to Clostridium difficile-induced colitis. Infect Immun 80:62-73). Fecal DNA was extracted as for sequencing, and bacterial load was quantified against a standard curve derived from apCR4TOPO-TA vector containing a nearly full-length copy of the 16S rRNA gene from a member of Porphyromonadaceae. Bacterial DNA was amplified with universal primers 8F and 338R using the iQ SYBR greensupermix (Bio-RadLifeScience) and the StepOne Plus system (AppliedBiosystems). The results were normalized to ileal content/fecal weight.

[3] = mouse, in vivo
Experimental: In vivo and ex vivo biodistribution of Cy5-PL2. Cy5-PL2 (2.6 μmol/kg), Cy5-PDL2 (2.6 μmol/kg) and PBS were administrated by oral gavage. Mice were placed on the sample stage equipped with anesthesia input and output ports, and imaged by the Bruker Xtreme In-Vivo Fluorescence Imaging System at 1 h, 2 h, 4 h, 7 h, and 24 h post injection (p.i.). The excitation filter was set at 630 nm and the emission filter was set at 700 nm. Collected images were analyzed by the Bruker molecular imaging software. Stomach, intestines, liver, lung, kidneys, heart, and spleen were harvested at 4 h or 24 h p.i. of Cy5-PL2 and imaged ex vivo using the Bruker Xtreme In-Vivo Imaging System. Ex vivo images were quantified by measuring FI at selected region of interest (ROI). All values were expressed as means±standard deviation (n=3). […] The other half of the stomach were placed into separate glass tubes containing 2 mL of lysis buffer (1% SDS, 100 10 mM Tris.HCl, pH 7.4, 1 tablet of EDTA-free protease inhibitor), homogenized, and incubated at 4° C. for 2 h. The lysates were then centrifuged at 3000 rcf for 10 min to remove the insoluble cell debris, and measured on a fluorescence spectrometer to determine the amount of Cy5 retained in the tissues. The amount of Cy5 was calculated based on the standard curve of Cy5 FI and normalized to percentage of injected dose (% I.D.) per gram tissue.

In the case of (PGA)18-r-(PHLG-MHH)20 [PL2], the “secondary structure (CD)” value ([1]; pH≤4.2) is reported as “typical helical conformation”, the “secondary structure (CD)” value ([1]; pH≥5.1) is reported as “random coiled conformation” and the “minimal inhibitory concentration (MIC)” value (E. coli DH5α) is reported as “higher than 70 μM”. For the same substance, the bacterial strains killed [2] was “over 90%”, the “bacterial membrane/morphology by SEM” value (H. pylori SS1; pH 4.0, 2.2 μM) was “dramatic damage of the bacterial membranes” and the “bacterial membrane/morphology by SEM” value (H. pylori SS1; pH 7.4, 2.2 μM) was “minimally affected the bacterial morphology”. For the same substance, the “killing of commensal bacteria in the feces” value (commensal bacteria) was “did not cause undesired killing of the commensal bacteria”, the “killing of commensal bacteria in the ileal contents” value (commensal bacteria) was “did not cause undesired killing of the commensal bacteria” and the gastric retention [3] was about 6%. It also gave a gastric retention ([3]; po, 2.6 umol/kg, 4 h) of about 40 % ID/g.
